Converted amounts (≈) assume the structure as drawn.
Assays:
[1] = system: IIIB strain of HIV-1 in CEM-SS cells; experiment: Measurement of anti-HIV activity in vitro (XTT method, control of cellular denaturalization due to HIV infection); assay type: cell-based
Method: An increase in the synergistic anti-virus activity in the combined use of KNI-272 and Saquinavir is shown by a specific experimental example. The anti-virus activity was evaluated as the capability of controlling generation of infectious virus particles in vitro. The effect of cell extinction to HIV infection was calculated when Saquinavir methanesulfonate and KNI-272 respectively or both were added to a culture liquid, to determine the concentration region where a synergistic increase in the anti-virus activity in the combined use of the two compounds is conspicuous. Measurement of the anti-virus activity in vitro was carried out according to the following procedure. In the description hereinafter the concentration of methanesulfonate is indicated as the concentration converted into Saquinavir. The concentration of KNI-272 is indicated as the concentration of the compound itself.
A IIIB strain of HIV-1 was used as an HIV wild strain and CEM-SS cells were used as infected cells in the above-mentioned culture. The amount of HIV sufficient to kill all CEM-SS cells 6 days after inoculation (multiplicy of infection, MOI of 0.01-0.05) was determined and this amount of HIV was added. A 96 well micro-titre plate was used to inoculate 5×10^3 CEM-SS cells per well in this case. At the time of inoculation of cells, a test compound was added to the culture medium to a prescribed concentration. Three specimens were used for each test level. The following controls were used (1) as calorimetric controls: a sample with only a test compound added to the culture medium, (2) as a cytotoxic control for a test compound: a sample with only cells and the test compound added to the culture medium, (3) as a virus control: a sample with the cells inoculated with only a virus, and (4) as a cell survival control, a sample consisting only of cells. In addition, AZT and DDC which are compounds with a known anti-HIV activity were used as positive controls. After the cells were added, they were inoculated with the infecting virus, followed by incubation at 37° C.for 6 days. Cellular denaturalization due to HIV infection was colorimetrically measured for each well. Employing the colorimetry, was the metabolism from XTT Tetrazolium to XTT Formazan was evaluated. This colorimetry is called the XTT method (see Weislow et al., Journal of the National Cancer Institute 81, 577-586 (1989)). After the above-mentioned incubation, a prescribed amount of XTT was added to each well and incubation was continued for a further four hours at 37° C. to measure the amount of XTT Formazan produced by metabolism by means of calorimetric quantitation.
The anti-HIV activity for each experimental level was calculated by comparing the number of undenatured cells measured by the above-mentioned assay with the corresponding number of cells in the four control groups. Specifically, the proportion of cellular denaturalization due to HIV infection controlled by the addition of the test compound was calculated. A systematic deviation between the several experiments was corrected based on the results of AZT and ddC used as positive controls.
In this example, 0 ng/ml and several concentrations in the range of 0.625-10.0 ng/ml of Saquinavir methanesulfonate and 0 ng/ml and several concentrations in the range of 0.313-80.0 ng/ml of KNI-272 were used. The results (anti-HIV activities) obtained under these conditions using either one of these medicaments or both medicaments in combination are shown in Table 1.
With regard to this concentration region wherein no synergistic increase can be seemingly identified, a similar evaluation was carried out adding a larger amount of HIV to qualitatively evaluate the presence or absence of a synergistic effect. […] This affords qualitative results rather than quantitative results.
An increase in the synergistic anti-virus activity in the combined use of KNI-272 and Ritonavir is shown by a specific experimental example. […]

[2] = Dynamics in vivo (concentration in plasma over time) of KNI-272 and Ritonavir in dogs; conditions: for MRT / AUC / Cmax / Tmax: dog, plasma, 15 mg/kg
[3] = Change of concentration in plasma over time after oral administration to rats (KNI-272 with Indinavir or Nelfinavir); conditions: for AUC: rat, plasma, po
Method: In this example, the change in concentration in blood of KNI-272 over time when the KNI-272 was orally administered in combination with Indinavir, i.e. the change in the concentration of a non-binding type of drug in plasma over time, was measured to evaluate the effect of drug interactions on fluctuations of dynamics in vivo. A commercially available Indinavir for oral administration, CRIXIVAN™ (manufactured by Merck), was used after dissolving Indinavir sulfate in a prescribed concentration. As KNI-272, a suspension prepared from a fine powder of KNI-272 was used. Rats were used as test animals. […] In addition, each compound was individually administered to control groups to evaluate the dynamics in vivo. The animals were fasted for 16 hours before administration. The measurement of the change in the non-binding drug concentration in plasma over time was carried out according to a conventional method using blood samples collected from the test animals.
The method of evaluation was applied to the above-mentioned system of Indinavir and KNI-272 was followed. […] In this example, a dosage of 50 mg/kg was selected for both Nelfinavir and KNI-272.

[4] = system: Indinavir resistant strain; experiment: Anti-virus activity IC50 against Indinavir resistant strain; assay type: cell-based, HIV; conditions: Human immunodeficiency virus 1, read-out: Anti-virus activity IC50
Excerpt: (§1) A drug resistant strain virus is a resistance strains induced in a cell culture system in vitro while maintaining infection in the presence of each medicament through generations.

KNI-272 resistant strain = experiment: microbe, parasite or virus in culture; assay type: cell-based, HIV; conditions: Human immunodeficiency virus 1, read-out: Anti-virus activity IC50
Excerpt: as §1

[5] = system: Ritonavir resistant strain; experiment: Anti-virus activity IC50 against Ritonavir resistant strain; assay type: cell-based, HIV; conditions: Human immunodeficiency virus 1, read-out: Anti-virus activity IC50
[6] = po, KNI-272 15 mg/kg p.o., administered after Ritonavir, dogs
[7] = po, KNI-272 15 mg/kg p.o., administered before Ritonavir, dogs
[8] = Indinavir 40 mg/kg + KNI-272 40 mg/kg p.o. at the same time

## CSC[C@H](NC(=O)COc1cccc2cnccc12)C(=O)N[C@@H](Cc1ccccc1)[C@H](O)C(=O)N1CSC[C@H]1C(=O)NC(C)(C)C [KNI-272, (R)-N-1,1-dimethylethyl-3-[(2S,3S)-2-hydroxy-3-[(R)-2-(5-isoquinolyloxyacetyl)amino-3-methylthiopropanoyl]amino-4-phenylbutanoyl]-1,3-thiazolidine-4-carboxyamide]
[1]; KNI-272 0.313 ng/ml alone (Table 1)
  Anti-HIV activity (%): 4.8%
[1]; KNI-272 0.313 ng/ml alone (Table 4)
  Anti-HIV activity (%): 5.6%
[1]; KNI-272 0.625 ng/ml alone (Table 1)
  Anti-HIV activity (%): 0.0%
[1]; KNI-272 0.625 ng/ml alone (Table 4)
  Anti-HIV activity (%): 2.1%
[1]; KNI-272 1.25 ng/ml alone (Table 1)
  Anti-HIV activity (%): 1.2%
[1]; KNI-272 1.25 ng/ml alone (Table 4)
  Anti-HIV activity (%): 3.8%
[1]; KNI-272 2.5 ng/ml alone (Table 1)
  Anti-HIV activity (%): 11.0%
[1]; KNI-272 2.5 ng/ml alone (Table 4)
  Anti-HIV activity (%): 2.2%
[1]; KNI-272 5.0 ng/ml alone (Table 1)
  Anti-HIV activity (%): 8.5%
[1]; KNI-272 5.0 ng/ml alone (Table 4)
  Anti-HIV activity (%): 0.0%
[1]; KNI-272 10.0 ng/ml alone (Table 1)
  Anti-HIV activity (%): 13.1%
[1]; KNI-272 10.0 ng/ml alone (Table 4)
  Anti-HIV activity (%): 2.5%
[1]; KNI-272 20.0 ng/ml alone (Table 1)
  Anti-HIV activity (%): 15.7%
[1]; KNI-272 20.0 ng/ml alone (Table 4)
  Anti-HIV activity (%): 12.8%
[1]; KNI-272 30.0 ng/ml alone
  anti-HIV activity as fraction of that of combined use of 10.0 ng/ml Saquinavir methanesulfonate and 20.0 ng/ml KNI-272: ⅓
[1]; KNI-272 40.0 ng/ml alone (Table 1)
  Anti-HIV activity (%): 27.6%
[1]; KNI-272 40.0 ng/ml alone (Table 4)
  Anti-HIV activity (%): 42.8%
[1]; KNI-272 60.0 ng/ml alone
  anti-HIV activity as fraction of that of combined use of 20.0 ng/ml Ritonavir and 40.0 ng/ml KNI-272: about ¾
[1]; KNI-272 80.0 ng/ml alone (Table 1)
  Anti-HIV activity (%): 65.7%
[1]; KNI-272 80.0 ng/ml alone (Table 4)
  Anti-HIV activity (%): 100.0%
[2]; KNI-272 15 mg/kg i.v., dogs
  Cltot: 1.49 h⁻¹ kg⁻¹
  Vd(ss): 0.70 kg⁻¹
[2]; KNI-272 15 mg/kg p.o., administered after Ritonavir, dogs
  F: 55.2%
[2]; KNI-272 15 mg/kg p.o., administered before Ritonavir, dogs
  F: 4.6%
[2]; iv, KNI-272 15 mg/kg i.v., dogs
  MRT: 28.2 min
[2]; iv, KNI-272 15 mg/kg i.v., independent administration, dogs
  AUC: 10100 ng·h/mL
[2]; po, KNI-272 15 mg/kg p.o., administered after Ritonavir (100 mg/body p.o., 30 min interval), dogs
  AUC: 5570 ng·h/mL
[2]; [6]
  Cmax: 2800 ng/mL
  MRT: 96.8 min
  Tmax: 30 min
[2]; po, KNI-272 15 mg/kg p.o., administered before Ritonavir (100 mg/body p.o., 30 min interval), dogs
  AUC: 467 ng·h/mL
[2]; [7]
  Cmax: 1000 ng/mL
  MRT: 30.8 min
  Tmax: 5 min
[2]; medicaments individually administered
  MRT value (index of the half-life of concentration in blood): 30 min
[3]; [8]
  increase in maximum concentration value in blood (Cmax) of KNI-272: about twice
  increase in the value of AUC of KNI-272: about a six-times increase
[3]; KNI-272 10 mg/kg one hour after Indinavir 90 mg/kg
  increase in AUC value of KNI-272: about 10 times
[3]; KNI-272 50 mg/kg with Nelfinavir 50 mg/kg vs alone
  decrease in the maximum concentration value in blood Cmax of KNI-272 (to fraction): about ¼
[3]; KNI-272 administered one hour after Indinavir
  increase in the maximum concentration value in blood (Cmax) of KNI-272: 3 times
[3]; 10 mg/kg, AUC value of KNI-272, KNI-272 10 mg/kg p.o., no Indinavir
  AUC: 660 ng·h/mL
[3]; 40 mg/kg, AUC value of KNI-272, KNI-272 40 mg/kg p.o. individually
  AUC: 4900 ng·h/mL
[3]; 40 mg/kg, AUC value of KNI-272, KNI-272 40 mg/kg p.o. together with Indinavir 40 mg/kg
  AUC: 29200 ng·h/mL
[3]; 50 mg/kg, AUC value for KNI-272, KNI-272 50 mg/kg p.o. only
  AUC: 9170 ng·h/mL
[3]; 50 mg/kg, AUC value for KNI-272, KNI-272 50 mg/kg p.o. simultaneously with Nelfinavir 50 mg/kg
  AUC: 10300 ng·h/mL
[3]; AUC value of KNI-272, KNI-272 10 mg/kg p.o. one hour after Indinavir 90 mg/kg
  AUC: 6900 ng·h/mL
[4]
  IC50: 0.01 µg/mL (≈ 0.015 µM)
KNI-272 resistant strain
  IC50: 0.32 µg/mL (≈ 0.479 µM)
[5]
  IC50: 0.304 µg/mL (≈ 0.455 µM)
